Each block holds one substance with its values, some of them ahead of it.
What was measured:
hPDE5 mutants [1] = target: T1, hPDE5 mutants (Homo sapiens, UniProt O76074); assay: GFP MFI by FACS in HCT116 cells transduced with hPDE5 constructs; format: cell-based; conditions: for Vardenafil Stabilization ratio / Sildenafil Stabilization ratio / GFP by FACS, Sildenafil 10 μM / GFP by FACS, Vardenafil 1 μM: hotspot constructs; for Vardenafil Stabilization ratio: 1 μM Vardenafil; for Sildenafil Stabilization ratio: 10 μM Sildenafil; for GFP by FACS, Sildenafil 10 μM / GFP by FACS, Vardenafil 1 μM: HCT116
Experimental: (§1) Desirable qualities of a DD include, low expression of the SRE in the absence of ligand and ligand dependent stabilization of the SRE. Constructs were generated using DDs linked to GFP using an SG linker. […] The mean fluorescence intensity (MFI) of GFP was analyzed by FACS. […] Destabilizing mutation coefficient less than 1 are desirable.
(§2) Mean fluorescence intensity (MFI) was measured by FACS. […] Destabilizing mutation coefficient ratios less than 1 are desirable.
(§3) Mean fluorescence intensity (MFI) was measured by FACS. […] Destabilizing mutation co-efficient ratios less than 1 are desirable.
(§4) Mean fluorescence intensity (MFI) was measured by FACS. […] Destabilizing mutation coefficient less than 1 are desirable.
as §4
(§5) Mean fluorescence intensity (MFI) of GFP was measured by FACS.
(§6) Mean fluorescence intensity (MFI) was measured by FACS.
(§7) The media containing the ligand was removed and fresh media without the ligand was added.
(§8) The properties of the DDs were analyzed in the presence and absence of ligands via FACS as previously described.
(§9) GFP fluorescence was measured by FACS.
(§10) The properties of the DDs were analyzed via FACS both in the presence and absence of ligands.
as §9

hPDE5 mutants [2] = assay: as above; format: cell-based, human; conditions: for Sildenafil Destabilizing mutation coefficient / Vardenafil Destabilizing mutation coefficient / GFP by FACS, Sildenafil 0 μM (DMSO) / GFP by FACS, Vardenafil 0 μM (DMSO): hotspot constructs; for Sildenafil Destabilizing mutation coefficient: DMSO control of Sildenafil; for Sildenafil Destabilizing mutation coefficient / Vardenafil Destabilizing mutation coefficient: vs OT-001075; for Vardenafil Destabilizing mutation coefficient: DMSO control of Vardenafil; for GFP by FACS, Sildenafil 0 μM (DMSO): HCT116, DMSO control of Sildenafil; for GFP by FACS, Vardenafil 0 μM (DMSO): HCT116, DMSO control of Vardenafil; for MFI: 48 hours, HCT 116 cells
Experimental: as §1, §2, §3, §4, §4, §5, §6, §7, §8, §9, §10, §9

hPDE5 mutants [3] = target: T1, hPDE5 mutants; assay: Western blot of AcGFP/GFP protein levels in HCT 116 cells expressing hPDE5 mutants; format: cell-based; design: GFP protein levels (western blot); fused on or other part: AcGFP reporter through a linker; conditions: vardenafil vs DMSO, HCT 116, R732 mutants
Experimental: Protein expression analysis of the combination mutants was performed in parallel via western blot. […] GAPDH levels were also analyzed to ensure even protein loading.

hPDE5 mutants [4] = assay: GFP expression (MFI) by FACS in HEK293 cells expressing hPDE5 constructs
Experimental: The mutant library was ligated in frame with an AcGFP reporter at C-terminus and cloned into pLVX-IRES—Puro vectors. […] DNA was extracted from the cell pool, cloned into vectors, and transformed into E. coli. Individual clones were sequenced and cloned in frame with a linker [sequence] […] HEK293 cells were transduced with individual clones and selected with puromycin.
The GFP expression in cells expressing hPDE5 constructs was measured by FACS.
The stability of hPDE5 mutants was measured using FACS and mean fluorescence intensity (MFI) of GFP was calculated.

[5] = Sildenafil 0.0005 μM, 48 h, HEK293
[6] = Sildenafil 3.33 μM, 48 h, HEK293
[7] = Sildenafil 10 μM, 48 h, HEK293 (dose titration)
[8] = Sildenafil 10 μM, 48 h, HEK293 (time course)
[9] = Vardenafil 0.0005 μM, 48 h, HEK293
[10] = Vardenafil 3.33 μM, 48 h, HEK293
[11] = Vardenafil (10 μM), 48 h, Table 25, cell line not given in table
[12] = Table 44, Vardenafil 0.01 μM, 48 h, HCT 116
[13] = Table 44, Vardenafil 0.04 μM, 48 h, HCT 116
[14] = Table 44, Vardenafil 3.33 μM, 48 h, HCT 116
[15] = Table 44, Vardenafil 10 μM, 48 h, HCT 116
[16] = Table 44, Vardenafil 30 μM, 48 h, HCT 116
[17] = Table 44, Vardenafil 1000 μM, 48 h, HCT 116
[18] = Table 45, Sildenafil 0.01 μM, 48 h, HCT 116
[19] = Table 45, Sildenafil 0.04 μM, 48 h, HCT 116
[20] = Table 45, Sildenafil 3.33 μM, 48 h, HCT 116
[21] = Table 45, Sildenafil 10 μM, 48 h, HCT 116
[22] = Table 45, Sildenafil 30 μM, 48 h, HCT 116
[23] = Table 45, Sildenafil 1000 μM, 48 h, HCT 116
[24] = Tadalafil 0.01 μM, 48 hours, HCT 116 cells

- Vardenafil Stabilization ratio (hPDE5 mutants [1]): 1.14
- Sildenafil Stabilization ratio (hPDE5 mutants [1]): 1.63
- GFP by FACS, Sildenafil 10 μM (hPDE5 mutants [1]): 648
- GFP by FACS, Vardenafil 1 μM (hPDE5 mutants [1]): 345
- GFP protein levels (western blot) (hPDE5 mutants [3]): strong stabilization of GFP levels
Substance: OT-001193: hPDE5 R732Y AcGFP construct
- Sildenafil Destabilizing mutation coefficient (hPDE5 mutants [2]): 0.4
- Vardenafil Destabilizing mutation coefficient (hPDE5 mutants [2]): 1.88
- GFP by FACS, Sildenafil 0 μM (DMSO) (hPDE5 mutants [2]): 397
- GFP by FACS, Vardenafil 0 μM (DMSO) (hPDE5 mutants [2]): 302

Substance: OT-001083: hPDE5-Y728L AcGFP construct
- MFI (hPDE5 mutants [4]; [5]): 4422
- Stabilization ratio (hPDE5 mutants [4]; [5]): 1.01
- MFI (hPDE5 mutants [4]; [6]): 17960
- Stabilization ratio (hPDE5 mutants [4]; [6]): 4.09
- MFI (hPDE5 mutants [4]; Sildenafil 10 μM, 2 h, HEK293): 7290
- Stabilization ratio (hPDE5 mutants [4]; Sildenafil 10 μM, 2 h, HEK293): 1.37
- MFI (hPDE5 mutants [4]; Sildenafil 10 μM, 4 h, HEK293): 8675
- Stabilization ratio (hPDE5 mutants [4]; Sildenafil 10 μM, 4 h, HEK293): 1.64
- MFI (hPDE5 mutants [4]; Sildenafil 10 μM, 6 h, HEK293): 10929
- Stabilization ratio (hPDE5 mutants [4]; Sildenafil 10 μM, 6 h, HEK293): 2.06
- MFI (hPDE5 mutants [4]; Sildenafil 10 μM, 16 h, HEK293): 19034
- Stabilization ratio (hPDE5 mutants [4]; Sildenafil 10 μM, 16 h, HEK293): 3.59
- MFI (hPDE5 mutants [4]; Sildenafil 10 μM, 24 h, HEK293): 27246
- Stabilization ratio (hPDE5 mutants [4]; Sildenafil 10 μM, 24 h, HEK293): 5.14
- MFI (hPDE5 mutants [4]; [7]): 32480
- Stabilization ratio (hPDE5 mutants [4]; [7]): 7.40
- MFI (hPDE5 mutants [4]; [8]): 34796
- Stabilization ratio (hPDE5 mutants [4]; [8]): 6.56
- MFI (hPDE5 mutants [4]; [9]): 7894
- Stabilization ratio (hPDE5 mutants [4]; [9]): 0.99
- MFI (hPDE5 mutants [4]; [10]): 134306
- Stabilization ratio (hPDE5 mutants [4]; [10]): 16.85
- MFI (hPDE5 mutants [4]; Vardenafil 10 μM, 48 h, HEK293): 166236
- Stabilization ratio (hPDE5 mutants [4]; Vardenafil 10 μM, 48 h, HEK293): 20.86
- Stabilization ratio (hPDE5 mutants [4]; Vardenafil (1 μM), 48 h, Table 25, cell line not given in table): 13.26
- MFI (hPDE5 mutants [4]; Vardenafil (1 μM), 48 h, Table 25, cell line not given in table (HEK293, HCT-116, SKOV-3)): 68816
- MFI (hPDE5 mutants [4]; [11]): 123150
- Stabilization ratio (hPDE5 mutants [4]; [11]): 23.72

- MFI (hPDE5 mutants [1]; [12]): 1810
- MFI (hPDE5 mutants [1]; [13]): 3356
- MFI (hPDE5 mutants [1]; [14]): 14531
- MFI (hPDE5 mutants [1]; [15]): 17645
- MFI (hPDE5 mutants [1]; [16]): 24322
- MFI (hPDE5 mutants [1]; [17]): 24322
- MFI (hPDE5 mutants [1]; [18]): 579
- MFI (hPDE5 mutants [1]; [19]): 612
- MFI (hPDE5 mutants [1]; [20]): 1709
- MFI (hPDE5 mutants [1]; [21]): 2733
- MFI (hPDE5 mutants [1]; [22]): 4197
- MFI (hPDE5 mutants [1]; [23]): 4197
- MFI (hPDE5 mutants [1]; [24]): 498
- Vardenafil Stabilization ratio (hPDE5 mutants [1]): 3.89
- Sildenafil Stabilization ratio (hPDE5 mutants [1]): 0.85
- GFP by FACS, Sildenafil 10 μM (hPDE5 mutants [1]): 170
- GFP by FACS, Vardenafil 1 μM (hPDE5 mutants [1]): 587
Substance: OT-001189: hPDE5 R732I AcGFP construct
- MFI (hPDE5 mutants [2]; Tadalafil 11.11 μM): 2746
- MFI (hPDE5 mutants [2]; Tadalafil 33.33 μM): 3970
- MFI (hPDE5 mutants [2]; Tadalafil 100 μM): 5487
- MFI (hPDE5 mutants [2]; Tadalafil 1000 μM): 5487
- Sildenafil Destabilizing mutation coefficient (hPDE5 mutants [2]): 0.2
- Vardenafil Destabilizing mutation coefficient (hPDE5 mutants [2]): 0.94
- GFP by FACS, Sildenafil 0 μM (DMSO) (hPDE5 mutants [2]): 201
- GFP by FACS, Vardenafil 0 μM (DMSO) (hPDE5 mutants [2]): 151
- GFP protein levels (western blot) (hPDE5 mutants [3]): Modest ligand dependent stabilization of GFP levels

- MFI (hPDE5 mutants [1]; [12]): 2551
- MFI (hPDE5 mutants [1]; [13]): 8345
- MFI (hPDE5 mutants [1]; [14]): 16783
- MFI (hPDE5 mutants [1]; [15]): 18945
- MFI (hPDE5 mutants [1]; [16]): 22548
- MFI (hPDE5 mutants [1]; [17]): 22548
- MFI (hPDE5 mutants [1]; [18]): 808
- MFI (hPDE5 mutants [1]; [19]): 1025
- MFI (hPDE5 mutants [1]; [20]): 3769
- MFI (hPDE5 mutants [1]; [21]): 4716
- MFI (hPDE5 mutants [1]; [22]): 5694
- MFI (hPDE5 mutants [1]; [23]): 5694
- MFI (hPDE5 mutants [1]; [24]): 752
- Vardenafil Stabilization ratio (hPDE5 mutants [1]): 4.87
- Sildenafil Stabilization ratio (hPDE5 mutants [1]): 1.21
- GFP by FACS, Sildenafil 10 μM (hPDE5 mutants [1]): 348
- GFP by FACS, Vardenafil 1 μM (hPDE5 mutants [1]): 853
- GFP protein levels (western blot) (hPDE5 mutants [3]): strong stabilization of GFP levels
Substance: OT-001187: hPDE5 R732A AcGFP construct
- MFI (hPDE5 mutants [2]; Tadalafil 11.11 μM): 5126
- MFI (hPDE5 mutants [2]; Tadalafil 33.33 μM): 6264
- MFI (hPDE5 mutants [2]; Tadalafil 100 μM): 6301
- MFI (hPDE5 mutants [2]; Tadalafil 1000 μM): 6301
- Sildenafil Destabilizing mutation coefficient (hPDE5 mutants [2]): 0.29
- Vardenafil Destabilizing mutation coefficient (hPDE5 mutants [2]): 1.09
- GFP by FACS, Sildenafil 0 μM (DMSO) (hPDE5 mutants [2]): 288
- GFP by FACS, Vardenafil 0 μM (DMSO) (hPDE5 mutants [2]): 175

- Vardenafil Stabilization ratio (hPDE5 mutants [1]): 0.95
- Sildenafil Stabilization ratio (hPDE5 mutants [1]): 1.57
- GFP by FACS, Sildenafil 10 μM (hPDE5 mutants [1]): 553
- GFP by FACS, Vardenafil 1 μM (hPDE5 mutants [1]): 289
- GFP protein levels (western blot) (hPDE5 mutants [3]): strong stabilization of GFP levels
Substance: OT-001200: hPDE5 R732Q AcGFP construct
- Sildenafil Destabilizing mutation coefficient (hPDE5 mutants [2]): 0.36
- Vardenafil Destabilizing mutation coefficient (hPDE5 mutants [2]): 1.89
- GFP by FACS, Sildenafil 0 μM (DMSO) (hPDE5 mutants [2]): 353
- GFP by FACS, Vardenafil 0 μM (DMSO) (hPDE5 mutants [2]): 305

- Vardenafil Stabilization ratio (hPDE5 mutants [1]): 3.38
- Sildenafil Stabilization ratio (hPDE5 mutants [1]): 0.6
- GFP by FACS, Sildenafil 10 μM (hPDE5 mutants [1]): 113
- GFP by FACS, Vardenafil 1 μM (hPDE5 mutants [1]): 507
Substance: OT-001188: hPDE5 R732V AcGFP construct
- Sildenafil Destabilizing mutation coefficient (hPDE5 mutants [2]): 0.19
- Vardenafil Destabilizing mutation coefficient (hPDE5 mutants [2]): 0.93
- GFP by FACS, Sildenafil 0 μM (DMSO) (hPDE5 mutants [2]): 189
- GFP by FACS, Vardenafil 0 μM (DMSO) (hPDE5 mutants [2]): 150
- GFP protein levels (western blot) (hPDE5 mutants [3]): Modest ligand dependent stabilization of GFP levels
